# Experimental data reported in patent publication US20030199671A1, “Binding molecules for Fc-region polypeptides” (priority 2001, published 2003).
# Where two headings read alike, the source gives them in different places. Positions of bridges follow the written chain, without caps; N, C: chain ends. Residues, ends and D or L forms follow the SMILES beside them. code X = not defined here; Su = not defined here
# Columns and labels:
# human plasma IgG1 = target: T1, human plasma IgG1 (Homo sapiens, UniProt P01857); assay: Fluorescence anisotropy binding, Oregon Green labeled peptide
# T1 construct: the individual human plasma IgG isoforms: IgG1, IgG2, IgG3, or IgG4; purchased Calbiochem; host or cells: human plasma
# Method: (§1) Peptides were synthesized by BACHEM and then Oregon Green labeled and HPLC purified. Binding studies were performed using human plasma IgG isoforms: IgG1, IgG2, IgG3, and IgG4, obtained from Calbiochem.
# (§2) Binding studies were carried out at either pH 4.0, 7.5, or 9.5, with or without salt in the following buffers:
# (§3) 2) 10 mM Sodium Citrate, 500 mM Sodium Chloride, 0.01% Tween 20, pH 4.0;
# (§4) 4) […], 500 mM Sodium Chloride, 0.01% Tween 20, pH 7.5;
# (§5) 5) 10 mM Sodium Bicarbonate, 0.01% Tween 20, pH 9.5;
# (§6) 6) 10 mM Sodium Bicarbonate, 500 mM Sodium Chloride, 0.01% Tween 20, pH 9.5; or […]
# human plasma IgG2 = target: T2, human plasma IgG2 (Homo sapiens, UniProt P01859); assay: as above
# T2 construct: the individual human plasma IgG isoforms: IgG1, IgG2, IgG3, or IgG4; purchased Calbiochem; host or cells: human plasma
# Method: as §1, §2, §3, §4, §5, §6
# human plasma IgG4 = target: T3, human plasma IgG4 (Homo sapiens, UniProt P01861); assay: as above
# T3 construct: the individual human plasma IgG isoforms: IgG1, IgG2, IgG3, or IgG4; purchased Calbiochem; host or cells: human plasma
# Method: as §1, §2, §3, §4, §5, §6
# human plasma IgG3 = target: T4, human plasma IgG3 (Homo sapiens, UniProt P01860); assay: as above
# T4 construct: the individual human plasma IgG isoforms: IgG1, IgG2, IgG3, or IgG4; purchased Calbiochem; host or cells: human plasma
# Method: as §1, §2, §3, §4, §5, §6
# human IgG [1] = format: binding
# Method: (§7) In addition, the following targets, all unfractionated IgGs, were also evaluated with selected immobilized peptides for species specificity characterization in a similar format: human IgG, goat IgG, bovine IgG, and mouse IgG (Sigma, product nos. I4506, I5256, I5506, and I15381, respectively). In addition, 10 μl aliquots of hydrolyzed NHS-activated Sepharose 4 Fast Flow (Amersham Pharmacia Biotech, product no. 17-0906-01) and immobilized recombinant Protein A (RepliGen Corp., product no. IPA-400) were also assayed as negative and positive controls. IgG targets were diluted into 10 mM phosphate buffer containing 150 mM NaCl and 0.01% Tween 20, pH 7.2 (PBST) or 50 mM Tris buffer containing, 150 mM NaCl and 0.01% Tween-20, pH 7.5 (TBST). Batch (static) binding and elution studies were conducted in a 96-well assay filterplate (Millipore MultiScreen-HV, with 0.45 μm Durapore membrane, product no. MAHVN4510). The target was allowed to incubate with the resin for 1-1.5 hours with shaking at room temperature. Unbound target was collected by centrifugation of samples from the assay plate directly into a low-UV absorbing 96-well collection plate (Costar, product no. 3635 or Greiner, product no. 655801). The unbound target was then quantitated by reading the absorbance at 280 nm (normalized to 1 cm pathlength, 1.4 mg/ml A280 extinction coefficient) of the collection plate on a microplate spectrophotometer (Molecular Devices Corp., SPECTRAmax PLUS) against a buffer blank.
# (§8) The percentage bound target was determined by subtracting the mass determined as unbound from the corresponding condition's control values (control non-filtered added directly to the collection plate and/or the negative control). The assay plate was washed (3×) with 200 μl of binding buffer by vacuum filtration followed by addition of 100 μl of various elution conditions (e.g.: 0.1 M sodium bicarbonate buffer, pH 8.5 and/or 0.1 M sodium citrate buffer, pH 4.0). After a 30-60 minute incubation with shaking at room temperature, the eluted target was collected by centrifugation of the assay plate into another collection plate and quantitated in a similar manner. Percent elution of total load was then determined to characterize elution recovery efficiency under various conditions. The assay plate was then washed (3×) with 200 μl of binding buffer by vacuum filtration followed by addition of a resin cleaning condition (e.g., 0.1M CAPS buffer (3-[Cyclohexylamino]-1-propane-sulfonic acid), pH 11.5, to regenerate the resin for re-use. Percentage mass balance determination was calculated to be 90-100% on average.
# human IgG [2] = assay: Static (filterplate) binding capacity; conditions: Table 18; 25 mg human IgG applied per ml resin; average ligand density 1.9 μmole/ml
# Method: These media were used to determine the effect of ligand density on human IgG binding capacity in both static (filterplate) and dynamic (mini-column) modes with commercial immobilized recombinant Protein A (Repligen, IPA400) at a single density as control. Actual ligand densities obtained ranged from 0.17 to 3.2 μmole/ml media as confirmed by quantitative amino acid analysis.
# After incubation of the samples, with shaking, at room temperature for one hour, the supernatant liquid from each well, containing unbound IgG, was collected by centrifugation into the cognate well of a collection plate. The assay plate was washed three times with PBST (200 μl/wash) and bound IgG was eluted from the media samples by incubation for 30-60 minutes at room temperature in 100 μl Elution Buffer (100 mM CAPS, pH 11.5). Eluates were collected by centrifugation for analysis. Protein concentrations were determined from A280 measurements and plotted as a function of mg human IgG bound per ml resin vs. mg human IgG applied per ml resin.
# The amount of IgG captured (estimated from IgG recovered in the elution step) by the various media is dependent upon both the IgG concentration and the ligand density. […] Under these static conditions, where both ligand and target concentrations are close to KD values, equilibrium binding is established and total capacities cannot be accurately determined. However, over the IgG range of 0 to 25 mg IgG applied per ml resin (0 to 2.5 mg/ml target added to 10 μl of resin), capture of IgG is linear. Beyond this point, up to a level of 200 mg IgG applied per ml resin, saturation becomes more pronounced.
# human IgG2 = target: T5, human IgG2 (Homo sapiens, UniProt P01859); format: binding; conditions: Table 13
# T5 construct: all human subtypes derived from myeloma patients; purchased Calbiochem 400122; host or cells: myeloma patients
# Method: as §7, §8
# mouse IgG = format: binding; conditions: Table 14; average ligand density 1.8 μM/ml
# Method: as §7, §8
# human IgG1 = target: T6, human IgG1 (Homo sapiens, UniProt P01857); format: binding; conditions: Table 13
# T6 construct: all human subtypes derived from myeloma patients; purchased Calbiochem 400120; host or cells: myeloma patients
# Method: as §7, §8
# IgG4 = IgG4 (Homo sapiens, UniProt P01861); format: binding; design: all human subtypes derived from myeloma patients; purchased Calbiochem 400126; host or cells: myeloma patients; conditions: Table 13
# Method: as §7, §8
# T3 sequence (P01861 1-327 isoform P01861-1): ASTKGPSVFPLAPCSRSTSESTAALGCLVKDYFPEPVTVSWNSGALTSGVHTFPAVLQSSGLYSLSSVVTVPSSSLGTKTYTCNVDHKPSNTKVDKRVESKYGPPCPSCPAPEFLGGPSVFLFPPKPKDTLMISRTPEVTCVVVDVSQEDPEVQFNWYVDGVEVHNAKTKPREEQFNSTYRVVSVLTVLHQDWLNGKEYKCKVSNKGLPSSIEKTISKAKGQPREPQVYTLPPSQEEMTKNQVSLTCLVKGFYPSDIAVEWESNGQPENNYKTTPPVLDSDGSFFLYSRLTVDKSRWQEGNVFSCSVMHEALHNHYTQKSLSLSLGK
# Sequence of IgG4 (P01861 1-327 isoform P01861-1): as above
# T4 sequence (P01860 1-377 isoform P01860-1): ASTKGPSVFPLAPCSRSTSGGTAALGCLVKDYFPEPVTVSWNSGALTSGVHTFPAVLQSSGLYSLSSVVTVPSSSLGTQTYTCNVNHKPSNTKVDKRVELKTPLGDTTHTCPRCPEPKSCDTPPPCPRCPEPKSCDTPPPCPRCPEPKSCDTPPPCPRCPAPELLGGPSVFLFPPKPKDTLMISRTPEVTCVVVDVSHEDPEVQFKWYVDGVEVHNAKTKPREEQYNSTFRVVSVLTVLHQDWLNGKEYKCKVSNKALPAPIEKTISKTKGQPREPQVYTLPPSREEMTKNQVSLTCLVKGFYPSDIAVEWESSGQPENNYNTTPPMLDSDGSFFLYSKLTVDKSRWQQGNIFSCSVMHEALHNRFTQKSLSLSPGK
# T6 sequence (P01857 1-330 isoform P01857-1): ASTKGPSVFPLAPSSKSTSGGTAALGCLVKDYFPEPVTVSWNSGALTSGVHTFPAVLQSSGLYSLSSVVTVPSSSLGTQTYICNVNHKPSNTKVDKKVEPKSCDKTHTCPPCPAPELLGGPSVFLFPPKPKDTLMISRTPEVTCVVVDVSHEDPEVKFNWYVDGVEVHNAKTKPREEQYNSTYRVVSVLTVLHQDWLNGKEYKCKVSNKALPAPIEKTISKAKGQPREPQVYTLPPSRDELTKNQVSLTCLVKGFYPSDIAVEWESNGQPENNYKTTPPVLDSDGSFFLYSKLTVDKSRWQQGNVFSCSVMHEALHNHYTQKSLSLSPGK
# T1 sequence (P01857 1-330 isoform P01857-1): as above
# T2 sequence (P01859 1-326 isoform P01859-1): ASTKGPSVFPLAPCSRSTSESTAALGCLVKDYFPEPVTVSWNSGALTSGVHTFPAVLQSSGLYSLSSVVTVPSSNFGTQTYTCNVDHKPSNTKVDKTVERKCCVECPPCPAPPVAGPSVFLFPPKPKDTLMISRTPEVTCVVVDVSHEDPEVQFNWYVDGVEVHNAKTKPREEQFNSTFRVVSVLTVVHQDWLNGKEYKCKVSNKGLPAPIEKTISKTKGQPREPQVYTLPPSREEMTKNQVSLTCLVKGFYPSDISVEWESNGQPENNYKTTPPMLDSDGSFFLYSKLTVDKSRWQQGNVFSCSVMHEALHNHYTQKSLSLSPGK
# T5 sequence (P01859 1-326 isoform P01859-1): as above
molecule,measurement,setting,value
CC(=O)N[C@@H](C)C(=O)NCC(=O)N[C@@H](Cc1ccc(O)cc1)C(=O)N[C@@H](Cc1c[nH]c2ccccc12)C(=O)N[C@@H](Cc1ccc(O)cc1)C(=O)N[C@H]1CSSC[C@@H](C(=O)N2CCC[C@H]2C(=O)N[C@@H](CC(C)C)C(=O)N[C@@H](Cc2ccc(O)cc2)C(=O)N2CCC[C@H]2C(=O)NCC(=O)N2CCC[C@H]2C(=O)N[C@@H](CCC(=O)O)C(=O)NCC(=O)NCC(=O)NCC(=O)N[C@@H](CCCCN)C(N)=O)NC(=O)[C@H](CCC(=O)O)NC(=O)[C@@H]2CCCN2C(=O)[C@H](CCCNC(=N)N)NC(=O)[C@H](CC(=O)O)NC(=O)[C@@H]2CCCN2C(=O)[C@H](Cc2ccccc2)NC(=O)[C@H](Cc2c[nH]c3ccccc23)NC1=O [DX413] (Ac-AGYWYCWFPDRPECPLYPGPEGGGK-NH2; disulfide 6-14 (inferred)),Kd,"human plasma IgG1; 10 nM Tris-HCl, 500 mM Sodium Chloride, pH 7.5, read-out: KD (μM) IgG1 pH 7.5 + salt",> 10 µM
same,Kd,"human plasma IgG1; 10 mM Sodium Bicarbonate, 500 mM Sodium Chloride, pH 9.5, read-out: KD (μM) IgG1 pH 9.5 + salt",> 10 µM
same,Kd,"human plasma IgG1; 10 mM Sodium Bicarbonate, pH 9.5, read-out: KD (μM) IgG1 pH 9.5 − salt",> 10 µM
same,Kd,"human plasma IgG1; 10 mM Sodium Citrate, 500 mM Sodium Chloride, pH 4.0, read-out: KD (μM) IgG1 pH 4.0 + salt",> 10 µM
same,Kd,"human plasma IgG1; 10 mM Sodium Citrate, pH 4.0, read-out: KD (μM) IgG1 pH 4.0 − salt",> 10 µM
same,Kd,"human plasma IgG1; 10 mM Tris-HCl, pH 7.5, read-out: KD (μM) IgG1 pH 7.5 − salt",> 10 µM
same,Kd,"human plasma IgG2; 10 nM Tris-HCl, 500 mM Sodium Chloride, pH 7.5, read-out: KD (μM) IgG2 pH 7.5 + salt",> 10 µM
same,Kd,"human plasma IgG2; 10 mM Sodium Bicarbonate, 500 mM Sodium Chloride, pH 9.5, read-out: KD (μM) IgG2 pH 9.5 + salt",> 10 µM
same,Kd,"human plasma IgG2; 10 mM Sodium Bicarbonate, pH 9.5, read-out: KD (μM) IgG2 pH 9.5 − salt",> 10 µM
same,Kd,"human plasma IgG2; 10 mM Sodium Citrate, 500 mM Sodium Chloride, pH 4.0, read-out: KD (μM) IgG2 pH 4.0 + salt",> 10 µM
same,Kd,"human plasma IgG2; 10 mM Sodium Citrate, pH 4.0, read-out: KD (μM) IgG2 pH 4.0 − salt",> 10 µM
same,Kd,"human plasma IgG2; 10 mM Tris-HCl, pH 7.5, read-out: KD (μM) IgG2 pH 7.5 − salt",> 10 µM
same,Kd,"human plasma IgG4; 10 nM Tris-HCl, 500 mM Sodium Chloride, pH 7.5, read-out: KD (μM) IgG4 pH 7.5 + salt",> 10 µM
same,Kd,"human plasma IgG4; 10 mM Sodium Bicarbonate, 500 mM Sodium Chloride, pH 9.5, read-out: KD (μM) IgG4 pH 9.5 + salt",> 10 µM
same,Kd,"human plasma IgG4; 10 mM Sodium Bicarbonate, pH 9.5, read-out: KD (μM) IgG4 pH 9.5 − salt",> 10 µM
same,Kd,"human plasma IgG4; 10 mM Sodium Citrate, 500 mM Sodium Chloride, pH 4.0, read-out: KD (μM) IgG4 pH 4.0 + salt",> 10 µM
same,Kd,"human plasma IgG4; 10 mM Sodium Citrate, pH 4.0, read-out: KD (μM) IgG4 pH 4.0 − salt",> 10 µM
same,Kd,"human plasma IgG4; 10 mM Tris-HCl, pH 7.5, read-out: KD (μM) IgG4 pH 7.5 − salt",> 10 µM
same,Kd,"human plasma IgG3; 10 nM Tris-HCl, 500 mM Sodium Chloride, pH 7.5, read-out: KD (μM) IgG3 pH 7.5 + salt",> 10 µM
same,Kd,"human plasma IgG3; 10 mM Sodium Bicarbonate, 500 mM Sodium Chloride, pH 9.5, read-out: KD (μM) IgG3 pH 9.5 + salt",> 10 µM
same,Kd,"human plasma IgG3; 10 mM Sodium Bicarbonate, pH 9.5, read-out: KD (μM) IgG3 pH 9.5 − salt",> 10 µM
same,Kd,"human plasma IgG3; 10 mM Sodium Citrate, 500 mM Sodium Chloride, pH 4.0, read-out: KD (μM) IgG3 pH 4.0 + salt",~1 µM
same,Kd,"human plasma IgG3; 10 mM Sodium Citrate, pH 4.0, read-out: KD (μM) IgG3 pH 4.0 − salt",~1 µM
same,Kd,"human plasma IgG3; 10 mM Tris-HCl, pH 7.5, read-out: KD (μM) IgG3 pH 7.5 − salt",> 10 µM
Ac-GDDHMCVYTTWGELIWCDNHEPG-X-Su-X-NH2 (Ac-GDDHMCVYTTWGELIWCDNHEPG-{code X-Su-code X-NH2}; not fully specified (bridges); printed as Ac-GDDHMCVYTTWGELIWCDNHEPG-X-Su-X-NH2; cysteine pairing not given here; reading uncertain) [DX878],Batch Binding (% Capture of Total Load) hIgG,"human IgG [1]; Table 18, average ligand density 1.9 μmole/ml",63%
same,Static Cap.,human IgG [2],23 mg/mL
Ac-GDSWNCAFHHNEMVWCDDGGTPGPEGGGK-NH2 (not fully specified (bridges); printed as Ac-GDSWNCAFHHNEMVWCDDGGTPGPEGGGK-NH2; cysteine pairing not given here) [DX597],hIgG2 elution pH 2.5 (% of Total Load),human IgG2,82%
same,hIgG2 elution pH 3.5 (% of Total Load),human IgG2,80%
same,hIgG2 elution pH 4.5 (% of Total Load),human IgG2,38%
same,hIgG2 elution pH 5.5 (% of Total Load),human IgG2,1%
same,hIgG2 elution pH 9.0 (% of Total Load),human IgG2,51%
same,hIgG2 elution pH 9.5 (% of Total Load),human IgG2,60%
same,"% IgG Capture - Batch Binding, Mouse IgG",mouse IgG,3%
same,hIgG1 elution pH 2.5 (% of Total Load),human IgG1,76%
same,hIgG1 elution pH 3.5 (% of Total Load),human IgG1,81%
same,hIgG1 elution pH 4.5 (% of Total Load),human IgG1,39%
same,hIgG1 elution pH 5.5 (% of Total Load),human IgG1,1%
same,hIgG1 elution pH 9.0 (% of Total Load),human IgG1,52%
same,hIgG1 elution pH 9.5 (% of Total Load),human IgG1,57%
same,"% IgG Capture - Batch Binding, Human IgG","human IgG [1]; Table 14, average ligand density 1.8 μM/ml",77%
same,hIgG4 elution pH 2.5 (% of Total Load),IgG4,50%
same,hIgG4 elution pH 3.5 (% of Total Load),IgG4,62%
same,hIgG4 elution pH 4.5 (% of Total Load),IgG4,13%
same,hIgG4 elution pH 5.5 (% of Total Load),IgG4,3%
same,hIgG4 elution pH 9.0 (% of Total Load),IgG4,56%
same,hIgG4 elution pH 9.5 (% of Total Load),IgG4,67%
